# Where two headings read alike, the source gives them in different places.
# What was measured:
# [1] = log P determination by HPLC on reversed-phase columns (C 18), analogous to OECD Guideline 117; assay type: physicochemical; conditions: for chromatographic logP: reversed-phase C18 HPLC column
# Method: The log P values were determined analogously to OECD Guideline 117 (EC Directive 92/69/EEC) by HPLC (high-performance liquid chromatography) using reversed-phase columns (C 18), by the following methods: [a] The LC-MS determination in the acidic range was effected at pH 2.7 with 0.1% aqueous formic acid and acetonitrile (contains 0.1% formic acid) as eluents; linear gradient from 10% acetonitrile to 95% acetonitrile. log P^[a] is also referred to as log P(HCOOH). [b] LC-MS determination in the neutral range was effected at pH 7.8 with 0.001 molar aqueous ammonium hydrogencarbonate solution and acetonitrile as eluents; linear gradient from 10% acetonitrile to 95% acetonitrile. log P^[…] is also referred to as log P(neutral).
# Tetranychus urticae = Tetranychus urticae spray test, OP-resistant; assay type: in vivo; conditions: 500 g/ha, bean leaf discs, after 6 days
# Method: Tetranychus urticae—Spray Test, OP-Resistant
# (§1) To produce a suitable preparation of active compound, 1 part by weight of active compound is dissolved using the stated parts by weight of solvent and made up with water containing an emulsifier concentration of 1000 ppm until the desired concentration is attained. To produce further test concentrations, the preparation is diluted with emulsifier-containing water.
# Discs of bean leaves (Phaseolus vulgaris) infested with all stages of the greenhouse red spider mite (Tetranychus urticae) are sprayed with an active compound preparation of the desired concentration.
# After 6 days, the efficacy in % is determined. 100% means that all the spider mites have been killed; 0% means that none of the spider mites have been killed.
# Meloidogyne incognita = Meloidogyne incognita test; assay type: in vivo; conditions: 20 ppm, lettuce, after 14 days; 100% = no galls
# Method: Meloidogyne incognita Test Solvent: 125.0 parts by weight of acetone To produce a suitable preparation of active compound, 1 part by weight of active compound is mixed with the stated amount of solvent and the concentrate is diluted with water to the desired concentration. Vessels are filled with sand, active compound solution, an egg/larvae suspension of the southern root-knot nematode (Meloidogyne incognita) and lettuce seeds. The lettuce seeds germinate and the plants develop. The galls develop on the roots. After 14 days, the nematicidal efficacy in % is determined by the formation of galls. 100% means that no galls were found; 0% means that the number of galls on the treated plants corresponds to the untreated control.
# Boophilus microplus = Boophilus microplus injection test; assay type: in vivo; conditions: 20 μg/animal, injection into engorged adult female cattle ticks, after 7 days; 100% = no fertile eggs
# Method: Boophilus microplus—Injection Test Solvent: dimethyl sulfoxide To produce a suitable preparation of active compound, 10 mg of active compound are mixed with 0.5 ml of solvent and the concentrate is diluted with solvent to the desired concentration. 1 μl of the active compound solution is injected into the abdomen of 5 engorged adult female cattle ticks (Boophilus microplus). The animals are transferred into dishes and kept in a climate-controlled room. Efficacy is assessed after 7 days by laying of fertile eggs. Eggs which are not visibly fertile are stored in a climate-controlled cabinet until the larvae hatch after about 42 days. An efficacy of 100% means that none of the ticks has laid any fertile eggs; 0% means that all the eggs are fertile.
# Phaedon cochleariae = Phaedon cochleariae spray test; assay type: in vivo; conditions: 500 g/ha, Chinese cabbage leaf discs, after 7 days
# Method: Phaedon cochleariae—Spray Test
# as §1
# After 7 days, the efficacy in % is determined. 100% means that all the beetle larvae have been killed; 0% means that no beetle larvae have been killed.
# [2] = acidic range, pH 2.7, 0.1% aqueous formic acid and acetonitrile
# [3] = neutral range, pH 7.8, 0.001 molar aqueous ammonium hydrogencarbonate and acetonitrile
# [4] = acidic range, pH 2.7, 0.1% aqueous formic acid and acetonitrile, read-out: logP(HCOOH)
# [5] = neutral range, pH 7.8, 0.001 molar aqueous ammonium hydrogencarbonate and acetonitrile, read-out: logP(neutral)
SMILES,"logP(HCOOH) [1, 2]","logP(neutral) [1, 3]",efficacy (spider mites killed) (Tetranychus urticae),"chromatographic logP [1, 4]","chromatographic logP [1, 5]",nematicidal efficacy (formation of galls) (Meloidogyne incognita),efficacy (laying of fertile eggs) (Boophilus microplus),efficacy (beetle larvae killed) (Phaedon cochleariae)
Cc1cc(C)c(-n2cnc3ncccc3c2=O)cc1SCC(F)(F)F [Compound 4],2.53,2.54,100%,–,–,–,–,–
"Cc1cc(F)c(-n2cnc3ncccc3c2=O)cc1[S+]([O-])CC(F)(F)F (stereo not drawn) [Compound 5, 3-{2-Fluoro-4-methyl-5-[(2,2,2-trifluoroethyl)sulfinyl]phenyl}pyrido[2,3-d]pyrimidin-4(3H)-one]",–,–,90%,1.56,1.56,–,–,–
O=c1c2cccnc2ncn1-c1cc(SCC(F)(F)F)c(Cl)cc1Cl [Compound 3],2.73,2.68,–,–,–,–,–,–
Cc1cc(C)c([S+]([O-])CC(F)(F)F)cc1-n1c(C)nc2ncccc2c1=O (stereo not drawn) [Compound 17],1.67,1.67,90%,–,–,90%,–,–
Cc1cc(F)c(-n2cnc3cnccc3c2=O)cc1[S+]([O-])CC(F)(F)F (stereo not drawn) [Compound 13],1.60,1.63,100%,–,–,–,–,–
O=c1c2cccnc2ncn1-c1cc([S+]([O-])CC(F)(F)F)c(Cl)cc1Cl (stereo not drawn) [Compound 7],1.98,1.84,90%,–,–,–,–,–
Cc1cc(F)c(-n2cnc3ccncc3c2=O)cc1[S+]([O-])CC(F)(F)F (stereo not drawn) [Compound 14],1.61,1.64,90%,–,–,–,100%,–
Cc1cc(F)c(-n2cnc3cccnc3c2=O)cc1[S+]([O-])CC(F)(F)F (stereo not drawn) [Compound 11],1.49,1.46,100%,–,–,–,–,100%
Cc1cc(Cl)c(-n2cnc3ncccc3c2=O)cc1SCC(F)(F)F [Compound 15],2.62,2.62,–,–,–,–,–,–
"Cc1nc2ncccc2c(=O)o1 [2-Methyl-4H-pyrido[2,3-d][1,3]oxazin-4-one]",–,–,–,0.42,0.43,–,–,–
Cc1cc(F)c(-n2cnc3ccncc3c2=O)cc1SCC(F)(F)F [Compound 1],2.54,2.56,100%,–,–,–,–,–
Cc1cc(C)c(-n2c(C)nc3ncccc3c2=O)cc1SCC(F)(F)F [Compound 16],2.63,2.60,–,–,–,–,–,–
"Cc1cc(F)c(-n2cnc3ncccc3c2=O)cc1SCC(F)(F)F [Compound 2, 3-{2-Fluoro-4-methyl-5-[(2,2,2-trifluoroethyl)sulfanyl]phenyl}-2-pyrido [2,3-d]pyrimidin-4(3H)-one]",–,–,90%,2.43,2.43,–,–,–
Cc1cc(Cl)c(-n2cnc3ncccc3c2=O)cc1[S+]([O-])CC(F)(F)F (stereo not drawn) [Compound 18],1.77,1.73,100%,–,–,–,–,–
"Cc1cc(F)c(NC(=O)c2cccnc2N)cc1SCC(F)(F)F [2-Amino-N-{2-fluoro-4-methyl-5-[(2,2,2-trifluoroethyl)sulfanyl]phenyl}nicotinamide]",–,–,–,1.7,2.71,–,–,–
Cc1cc(F)c(-n2cnc3cnccc3c2=O)cc1SCC(F)(F)F [Compound 12],2.55,2.56,–,–,–,–,–,–
"Cc1cc(F)c(-n2c(C)nc3ncccc3c2=O)cc1[S+]([O-])CC(F)(F)F (stereo not drawn) [Compound 10, 3-{2-Fluoro-4-methyl-5-[(2,2,2-trifluoroethyl)sulfinyl]phenyl}-2-mehtylpyrido[2,3-d]pyrimidin-4(3H)-one]",–,–,100%,1.66,1.64,–,–,–
Cc1cc(F)c(-n2cnc3cccnc3c2=O)cc1SCC(F)(F)F [Compound 9],2.33,–,100%,–,–,–,–,–
"Cc1cc(F)c(-n2c(C)nc3ncccc3c2=O)cc1SCC(F)(F)F [Compound 8, 3-{2-Fluoro-4-methyl-5-[(2,2,2-trifluoroethyl)sulfanyl]phenyl}-2-mehtylpyrido[2,3-d]pyrimidin-4(3H)-one]",–,–,100%,2.55,2.52,–,–,–
Cc1cc(C)c([S+]([O-])CC(F)(F)F)cc1-n1cnc2ncccc2c1=O (stereo not drawn) [Compound 6],1.62,1.61,100%,–,–,–,100%,–

# Source: patent US20160108038A1, “BICYCLIC ARYL SULFIDE AND ARYL SULFOXIDE DERIVATIVES AS PEST CONTROL AGENT” (BAYER CROPSCIENCE AKTIENGESELLSCHAFT, priority 2013, published 2016)
